Like-named read-outs stand apart in the source and are kept apart here.
How the values were obtained:
B16-F1 (murine melanoma) = assay: [3H] thymidine uptake cell proliferation assay, B16F1; type: cell-based; details: Mus musculus, read-out: Cell Proliferation Effects (IC50 (nM))
[1] = system: B16-F10 (murine melanoma); assay: [3H] thymidine uptake cell proliferation assay, B16F10; type: cell-based; details: Mus musculus, read-out: Cell Proliferation Effects (IC50 (nM))
DU-145 (human carcinoma) = assay: [3H] thymidine uptake cell proliferation assay, DU145; type: cell-based; details: read-out: Cell Proliferation Effects (IC50 (nM))
M3 murine melanoma cells = assay: [3H] thymidine uptake cell proliferation assay, M3; type: cell-based; details: Mus musculus, read-out: Cell Proliferation Effects (IC50 (nM))
[2] = system: SKOV-3 (human ovarian carcinoma); assay: [3H] thymidine uptake cell proliferation assay, SKOV3; type: cell-based; details: SK-OV-3, read-out: Cell Proliferation Effects (IC50 (nM))
U-87 (human glioma) = assay: [3H] thymidine uptake cell proliferation assay, U87; type: cell-based
Experimental: Compounds were added to culture at mid-logarithmic growth and incubated for 20 hours. (N=8 for the values+standard errors). […] Cell lines A-549 (human lung carcinoma), B16-F1 (murine melanoma), B16-F10 (murine melanoma), DU-145 (human […] carcinoma), LS-180 (human colon carcinoma), PC3 (human prostate carcinoma), SKOV-3 (human ovarian carcinoma), U-87 (human glioma), and NIH-3T3 (murine embryonic fibroblasts) were all cultured in DMEM supplemented with 10% fetal bovine serum. M3 murine melanoma cells were cultured in DMEM/F12 1:1, and HT-29 human colon carcinoma and LL2 Lewis Lung […] lung carcinoma were cultured in RPMI1640. All the foregoing cell lines were obtained from ATCC. All cells were passaged regularly using 0.25% Trypsin-EDTA in order to maintain cells at exponential growth for various experiments. LS 180 cells were passaged without trypsin and were physically scraped off the culture flasks. In vitro [^3H] thymidine uptake assay. Proliferation can be measured by quantifying the amount of [^3H] thymidine uptake into cells using a β-counter, and therefore is a well-established diagnostic tool to measure DNA synthesis within the cells. […] The cells were allowed to adhere to the plates via incubation at 37° C. in 5% CO2 for 12–14 hours. […] Then, 10 μL of the compound was added to the pre-existing 90 μL per well, and incubated further at 37° C. in 5% CO2 for 20 hours. To measure thymidine incorporation, cells were fixed onto the culture wells by slowly adding ¼^th volume of cold 50% TCA into each well (25 μL to each well) and incubated for 1–2 hours at 4° C. Wells were washed 5 times with tap water to remove any free [^3H] thymidine in the media, and air-dried completely at room temperature. Then, 100 μL of scintillation fluid was added to each well and the activity counted using a Wallac Microbeta Counter.

[3] = system: NIH-3T3 (murine embryonic fibroblasts); assay: [3H] thymidine uptake cell proliferation assay, NIH3T3; type: cell-based; details: Mus musculus; NIH3T3, non-tumorigenic cell line; read-out: Cell Proliferation Effects (IC50 (nM))
[4] = In vivo xenograft model, tumour growth; details: 2.5 mg/kg daily i.p. in DMSO, day 15, athymic (Rag2M) female mice; control 100%
Experimental: Mice were inoculated subcutaenously in the rear flank with […] (LS180) and then injected daily with KP-23172 i.p. Tumour measurements were taken daily. A group of 8 athymic (Rag2M) female mice were used as a murine allograft model for the test compound, which was administered in DMSO. 8 control mice received no test compound. Mice were inoculated with tumour cells subcutaneously in the rear flank and then injected with test compound daily intraperitoneally. Tumors were measured and the size calculated, with the objective being a reduction in tumor growth compared to controls. […] Results are illustrated in FIG. 4.

in vivo = details: mouse, ip, 2 mg/kg
Experimental: A pharmacokinetics (PK) study was performed on KP-23172 formulated in 20% propylene glycol and 20% hydroxypropyl-B-cyclodextrin, administered intraperitoneally (i.p.) at 2 mg/kg. Plasma samples obtained at various time points were sent to BRI Biopharmaceutical Research Inc., Burnaby, BC, Canada for analysis by Liquid Chromatography/Mass Spectroscopy (LC/MS). Electrospray LC/MS/MS data was acquired in the multiple-reaction-monitoring mode (MRM) in which m/z 225.00>114.20 was monitored for KP-23172 as its [M+H]^+ transition to an ion fragment of m/z 114.2. A mass ion transition of m/z 300.00>165.10 was being monitored for codeine as an internal standard. MRM chromatograms of mouse plasma standard curve samples spiked with 1 and 5000 ng/ml were performed as controls. Plasma calibration standard curves were established based on 1/y linear regression of plasma concentrations of KP-23172 against peak area ratio to the internal standard. The calculated KP-23172 plasma concentrations were based on the assay of 0.05 ml of plasma volume used in the assay and reported as ng/ml concentration. A summary of the KP-23172 plasma concentrations observed in 20 samples from 4 mice is presented in FIG. 2 as a semi-logarithmic plot of the plasma concentrations against blood collection times.

PKB = assay: Time course kinase assay in U87 cells, immunoprecipitated with PKB/PH specific antibody; type: cell-based, human; details: for PKB activity, % of control: 5 uM, background about 15% of control
Experimental: The compound was added to culture at mid-logarithmic growth which were harvested at specific time intervals. In preparation for this assay, each cell line was seeded at a density of 3 times 1,000,000 cells per plate onto 150 mm culture dishes and allowed to establish o/n at 37 deg C. A confluency of 50–60% was obtained to ensure maximal drug penetration into each cell. Once the cells were adherent to the culture plates, there were treated with PKB inhibitor KP-23172 for a final conc. of 5 uM. Each culture plate was lysed on ice at specific time intervals using 1% NP-40 lysis buffer containing various protease inhibitors; 10 ug/uL aprotinin, 10 ug/ul leupeptin, 1 ug/ul pepstatin, 1 M beta-glycerophosphate and 100 mM PMSF. The resulting lysates were centrifuged at 15K×g at 4 deg C. for 5 min and then assayed for its protein conc. using Bradford's Reagent and absorbance measurements at 595 nm. […] Each sample was then centrifuged at 14K×g for 2 min at 4 deg C. and the s/n aspirated off. Beads were thoroughly washed twice with lysis buffer, then with Assay Dilution Buffer. When any unbound proteins have been completely washed away from the beads, 30 uL of ADB was added along with 10 uL of PDB substrate. Tubes were immediately incubated in 30 deg. C. water baths after the kinase reaction was allowed to commence with the addition of 10 uL assay (gamma32P)ATP. […] All vials were counted for one minute in the scintillation counter. To determine the potency of KP-23172, U87 cells were plated onto 150 mm petri plates and treated with 5 uM KP-23172. After incubation at 37 deg C. under 5% CO2 for the specified time, cells were lysed and the supernatant extracted for kinase analysis. All samples were immunoprecipitated with PKB/PH specific antibody and kinase activity. measured using a short amino acid peptide as the substrate. […] Background was about 15% of control.

`O=C1c2ccccc2-c2nc3nnnn3nc21` [KP-23172] gave an IC50 (B16-F1 (murine melanoma)) of 60 nM, an IC50 [1] of 400 nM and an IC50 (DU-145 (human carcinoma)) of 50 nM. It also gave an IC50 (M3 murine melanoma cells) of 25 nM, an IC50 [2] of 200 nM and an IC50 (U-87 (human glioma); U-87 MG, U87, read-out: Cell Proliferation Effects (IC50 (nM))) of 50 nM. For the same compound, the IC50 (U-87 (human glioma); added at mid-logarithmic growth, incubated 20 hours, N=8, read-out: U87 proliferation (thymidine incorporation) IC50, FIG. 1) was 50 nM, the IC50 [3] was 150 nM and the tumor take rate [4] was 62.5%. For the same compound, the concentration at 15 min (in vivo) was ~500 ng/mL, the concentration at 60 min (in vivo) was ~100 ng/mL and the half-life (in vivo) was “about ½”. The “PKB activity, % of control” value (PKB; after 15 min) was 80.4%, the “PKB activity, % of control” value (PKB; after 30 min) was 23.8% and the “PKB activity, % of control” value (PKB; after 60 min) was 38.5%. For the same compound, the “levels of the kinase in time course kinase assay” value (PKB; 5 iM, after 60 minutes) was “significantly decreased levels of the kinase”.
